Measurements as given in publication PMC3961306, “Comparison of the Cancer Gene Targeting and Biochemical Selectivities of All Targeted Kinase Inhibitors Approved for Clinical Use” (PLoS ONE, 2014).

Columns and labels:
Experiment in all cases: Kinase profiling in a biochemical assay panel (mobility shift assays and ELISA), %-inhibition at 1 μM; selectivity entropy
[1] = biological target: panel of more than 300 wild-type and mutant kinases (313 kinase panel) (Homo sapiens, UniProt Q9NYY3); conditions: kinase PLK2; 1 μM
[2] = biological target: T1, panel of more than 300 wild-type and mutant kinases (313 kinase panel) (Homo sapiens, UniProt Q13163); conditions: kinase MAP2K5; compound at 1 μM
T1 sequence (Q13163 1-448): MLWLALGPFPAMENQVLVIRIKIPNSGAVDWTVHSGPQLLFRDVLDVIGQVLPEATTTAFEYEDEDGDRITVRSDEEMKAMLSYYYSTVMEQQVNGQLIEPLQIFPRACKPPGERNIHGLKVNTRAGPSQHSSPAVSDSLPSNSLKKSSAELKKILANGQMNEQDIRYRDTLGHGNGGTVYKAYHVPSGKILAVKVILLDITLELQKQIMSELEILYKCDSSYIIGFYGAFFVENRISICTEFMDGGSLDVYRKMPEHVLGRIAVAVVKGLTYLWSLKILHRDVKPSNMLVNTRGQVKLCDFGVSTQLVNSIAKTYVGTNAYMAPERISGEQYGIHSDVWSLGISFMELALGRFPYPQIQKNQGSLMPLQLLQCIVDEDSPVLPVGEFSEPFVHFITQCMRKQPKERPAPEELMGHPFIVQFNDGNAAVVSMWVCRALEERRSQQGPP

[3] = biological target: panel of more than 300 wild-type and mutant kinases (313 kinase panel) (Homo sapiens, UniProt Q96RG2); conditions: kinase PASK; 1 μM
Chain of panel of more than 300 wild-type and mutant kinases (313 kinase panel) (Homo sapiens, UniProt Q96RG2) (Q96RG2 whole entry, change not shown): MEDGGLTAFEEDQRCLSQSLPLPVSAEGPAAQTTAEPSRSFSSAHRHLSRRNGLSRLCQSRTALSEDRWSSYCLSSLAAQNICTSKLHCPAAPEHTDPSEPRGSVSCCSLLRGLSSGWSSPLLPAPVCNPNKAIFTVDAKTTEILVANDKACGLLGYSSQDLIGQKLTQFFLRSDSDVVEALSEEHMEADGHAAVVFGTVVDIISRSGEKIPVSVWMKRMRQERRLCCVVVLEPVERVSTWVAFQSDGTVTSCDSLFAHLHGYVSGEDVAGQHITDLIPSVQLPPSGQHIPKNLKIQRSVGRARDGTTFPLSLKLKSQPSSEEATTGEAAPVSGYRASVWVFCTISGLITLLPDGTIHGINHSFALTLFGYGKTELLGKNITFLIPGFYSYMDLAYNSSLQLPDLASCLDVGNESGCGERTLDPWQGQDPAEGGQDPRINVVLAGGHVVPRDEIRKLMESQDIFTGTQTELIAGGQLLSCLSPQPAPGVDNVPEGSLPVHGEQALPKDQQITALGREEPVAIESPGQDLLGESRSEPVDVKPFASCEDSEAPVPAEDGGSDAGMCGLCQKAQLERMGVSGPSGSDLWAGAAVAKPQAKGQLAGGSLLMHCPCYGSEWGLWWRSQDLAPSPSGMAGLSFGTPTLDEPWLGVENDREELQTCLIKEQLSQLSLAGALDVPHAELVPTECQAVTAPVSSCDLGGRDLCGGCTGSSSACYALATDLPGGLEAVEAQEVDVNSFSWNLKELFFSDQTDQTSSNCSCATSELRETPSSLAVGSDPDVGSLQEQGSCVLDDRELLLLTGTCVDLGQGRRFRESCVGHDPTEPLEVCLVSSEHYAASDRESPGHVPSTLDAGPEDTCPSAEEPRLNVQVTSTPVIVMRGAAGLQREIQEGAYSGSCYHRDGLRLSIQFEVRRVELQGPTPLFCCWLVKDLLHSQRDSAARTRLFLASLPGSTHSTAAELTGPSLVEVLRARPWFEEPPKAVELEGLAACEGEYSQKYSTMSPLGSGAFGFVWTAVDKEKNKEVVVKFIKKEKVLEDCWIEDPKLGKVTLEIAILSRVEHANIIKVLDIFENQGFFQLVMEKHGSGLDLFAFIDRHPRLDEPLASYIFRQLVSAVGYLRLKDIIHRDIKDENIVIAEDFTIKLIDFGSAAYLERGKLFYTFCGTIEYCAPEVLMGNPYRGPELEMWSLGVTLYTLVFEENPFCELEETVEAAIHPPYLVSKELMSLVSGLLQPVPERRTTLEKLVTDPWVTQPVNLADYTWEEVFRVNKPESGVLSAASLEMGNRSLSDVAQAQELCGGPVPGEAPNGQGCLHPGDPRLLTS

[4] = biological target: T2, panel of more than 300 wild-type and mutant kinases (313 kinase panel) (Homo sapiens, UniProt O94806); conditions: kinase PKD3; 1 μM
T2 sequence (O94806 1-890): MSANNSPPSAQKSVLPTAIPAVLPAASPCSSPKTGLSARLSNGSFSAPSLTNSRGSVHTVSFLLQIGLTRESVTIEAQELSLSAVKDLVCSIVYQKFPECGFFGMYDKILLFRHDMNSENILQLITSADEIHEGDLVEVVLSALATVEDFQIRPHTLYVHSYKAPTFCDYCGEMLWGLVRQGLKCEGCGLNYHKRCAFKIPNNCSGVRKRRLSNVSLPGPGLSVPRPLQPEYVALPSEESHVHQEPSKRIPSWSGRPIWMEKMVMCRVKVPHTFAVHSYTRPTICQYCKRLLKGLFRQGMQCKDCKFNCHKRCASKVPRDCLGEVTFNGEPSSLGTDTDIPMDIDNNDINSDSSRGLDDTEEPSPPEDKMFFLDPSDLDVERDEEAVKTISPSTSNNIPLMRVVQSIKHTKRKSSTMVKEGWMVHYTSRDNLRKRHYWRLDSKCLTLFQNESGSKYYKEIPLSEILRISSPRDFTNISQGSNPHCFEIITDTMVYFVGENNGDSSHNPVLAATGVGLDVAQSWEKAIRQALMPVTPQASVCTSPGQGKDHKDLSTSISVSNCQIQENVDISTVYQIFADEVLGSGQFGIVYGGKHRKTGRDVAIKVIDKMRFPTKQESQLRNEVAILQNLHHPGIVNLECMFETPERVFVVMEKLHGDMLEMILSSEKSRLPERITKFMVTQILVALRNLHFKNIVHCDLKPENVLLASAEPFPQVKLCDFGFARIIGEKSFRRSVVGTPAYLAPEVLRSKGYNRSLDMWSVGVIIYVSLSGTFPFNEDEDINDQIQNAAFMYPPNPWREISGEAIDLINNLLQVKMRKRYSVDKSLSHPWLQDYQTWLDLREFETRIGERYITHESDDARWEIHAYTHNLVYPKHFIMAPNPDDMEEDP

[5] = biological target: panel of more than 300 wild-type and mutant kinases (313 kinase panel) (Homo sapiens, UniProt P22455, N535K); conditions: kinase FGFR4(N535K); compound at 1 μM
Chain of panel of more than 300 wild-type and mutant kinases (313 kinase panel) (Homo sapiens, UniProt P22455, N535K) (P22455 22-802 N535K): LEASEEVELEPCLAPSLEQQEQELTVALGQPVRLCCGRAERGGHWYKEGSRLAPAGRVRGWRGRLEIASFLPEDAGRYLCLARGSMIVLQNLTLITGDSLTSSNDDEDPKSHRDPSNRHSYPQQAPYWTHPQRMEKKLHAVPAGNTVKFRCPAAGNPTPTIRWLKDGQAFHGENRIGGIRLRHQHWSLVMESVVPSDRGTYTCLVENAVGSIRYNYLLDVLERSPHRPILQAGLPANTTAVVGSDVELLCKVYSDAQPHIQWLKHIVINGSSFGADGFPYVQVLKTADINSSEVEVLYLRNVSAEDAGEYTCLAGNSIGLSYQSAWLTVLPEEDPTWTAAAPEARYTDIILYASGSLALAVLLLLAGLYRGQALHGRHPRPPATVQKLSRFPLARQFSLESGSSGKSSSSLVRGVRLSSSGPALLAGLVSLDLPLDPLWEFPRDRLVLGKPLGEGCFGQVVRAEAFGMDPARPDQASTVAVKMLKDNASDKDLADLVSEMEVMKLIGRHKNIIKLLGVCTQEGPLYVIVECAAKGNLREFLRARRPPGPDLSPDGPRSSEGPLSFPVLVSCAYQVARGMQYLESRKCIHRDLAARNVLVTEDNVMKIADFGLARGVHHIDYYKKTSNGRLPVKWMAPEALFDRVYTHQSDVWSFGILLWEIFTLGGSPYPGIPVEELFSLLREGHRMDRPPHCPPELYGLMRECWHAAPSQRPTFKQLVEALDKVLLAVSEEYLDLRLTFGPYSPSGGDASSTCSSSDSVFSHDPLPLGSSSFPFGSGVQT

[6] = biological target: panel of more than 300 wild-type and mutant kinases (313 kinase panel) (Homo sapiens, UniProt Q86Z02); conditions: kinase HIPK1; compound at 1 μM
[7] = biological target: panel of more than 300 wild-type and mutant kinases (313 kinase panel) (Homo sapiens, UniProt P78362); conditions: kinase SRPK2; 1 μM
[8] = biological target: T3, panel of more than 300 wild-type and mutant kinases (313 kinase panel) (Homo sapiens, UniProt P00540); conditions: kinase MOS; 1 μM
T3 sequence (P00540 1-346): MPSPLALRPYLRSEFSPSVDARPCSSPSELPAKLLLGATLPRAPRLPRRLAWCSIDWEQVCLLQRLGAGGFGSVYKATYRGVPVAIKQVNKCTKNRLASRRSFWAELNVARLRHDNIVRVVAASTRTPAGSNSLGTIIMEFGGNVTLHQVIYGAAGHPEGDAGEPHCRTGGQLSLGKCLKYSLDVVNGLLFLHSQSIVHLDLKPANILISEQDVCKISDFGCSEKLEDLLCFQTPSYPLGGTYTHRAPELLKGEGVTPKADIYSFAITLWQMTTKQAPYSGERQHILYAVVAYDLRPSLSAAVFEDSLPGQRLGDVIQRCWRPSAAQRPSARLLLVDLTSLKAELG

[9] = biological target: panel of more than 300 wild-type and mutant kinases (313 kinase panel) (Homo sapiens, UniProt P22607); conditions: kinase FGFR3; compound at 1 μM
Chain of panel of more than 300 wild-type and mutant kinases (313 kinase panel) (Homo sapiens, UniProt P22607) (P22607 23-806, change not shown): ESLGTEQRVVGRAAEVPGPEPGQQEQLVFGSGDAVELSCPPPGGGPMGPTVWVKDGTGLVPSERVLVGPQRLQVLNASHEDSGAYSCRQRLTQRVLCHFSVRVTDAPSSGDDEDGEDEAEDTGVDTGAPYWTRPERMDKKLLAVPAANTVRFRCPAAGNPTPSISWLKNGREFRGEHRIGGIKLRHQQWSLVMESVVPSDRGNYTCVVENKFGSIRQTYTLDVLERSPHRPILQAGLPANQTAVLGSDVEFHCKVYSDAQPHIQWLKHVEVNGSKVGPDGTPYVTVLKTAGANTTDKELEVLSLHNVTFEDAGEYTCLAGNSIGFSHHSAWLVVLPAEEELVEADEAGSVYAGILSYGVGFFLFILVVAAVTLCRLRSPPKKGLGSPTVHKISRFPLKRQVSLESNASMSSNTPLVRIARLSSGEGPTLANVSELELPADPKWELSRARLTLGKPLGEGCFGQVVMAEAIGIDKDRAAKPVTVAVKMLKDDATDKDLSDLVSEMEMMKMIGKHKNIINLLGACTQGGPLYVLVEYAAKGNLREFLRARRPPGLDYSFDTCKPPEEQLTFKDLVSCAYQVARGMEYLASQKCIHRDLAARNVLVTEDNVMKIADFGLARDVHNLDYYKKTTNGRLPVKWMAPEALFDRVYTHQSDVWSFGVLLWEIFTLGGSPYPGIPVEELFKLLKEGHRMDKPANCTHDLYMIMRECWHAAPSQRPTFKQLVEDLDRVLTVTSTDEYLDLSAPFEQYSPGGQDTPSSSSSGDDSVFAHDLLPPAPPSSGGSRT

SMILES	%-inhibition of PLK2 [1]	%-inhibition of MAP2K5 [2]	%-inhibition of PASK [3]	%-inhibition of PKD3 [4]	%-inhibition of FGFR4(N535K) [5]	%-inhibition of HIPK1 [6]	%-inhibition of SRPK2 [7]	%-inhibition of MOS [8]	%-inhibition of FGFR3 [9]
CO[C@H]1C[C@@H]2CC[C@@H](C)[C@@](O)(O2)C(=O)C(=O)N2CCCC[C@H]2C(=O)O[C@H]([C@H](C)C[C@@H]2CC[C@@H](OCCO)[C@H](OC)C2)CC(=O)[C@H](C)/C=C(\C)[C@@H](O)[C@@H](OC)C(=O)[C@H](C)C[C@H](C)/C=C/C=C/C=C/1C [everolimus]	1.38%	1.34%	-9%	-7.55%	9%	-6%	-10%	3.3%	-9%
CC(=O)Nc1cccc(-n2c(=O)n(C3CC3)c(=O)c3c(Nc4ccc(I)cc4F)n(C)c(=O)c(C)c32)c1 [trametinib]	-1.65%	13%	-0.187%	2.48%	-5.47%	-3.71%	-0.868%	42%	-5.68%
CO[C@H]1C[C@@H]2CC[C@@H](C)[C@@](O)(O2)C(=O)C(=O)N2CCCC[C@H]2C(=O)O[C@H]([C@H](C)C[C@@H]2CC[C@@H](OC(=O)C(C)(CO)CO)[C@H](OC)C2)CC(=O)[C@H](C)/C=C(\C)[C@@H](O)[C@@H](OC)C(=O)[C@H](C)C[C@H](C)/C=C/C=C/C=C/1C [temsirolimus]	0.568%	-1.51%	-8%	-10%	9%	-0.101%	-3.79%	-1.43%	-5%
